Results reported in patent US20030054411A1, “GPR motifs and uses thereof” (priority 2001, published 2003).

B1: AGS3: Activator of G-protein Signalling 3; bioactive 74 amino acid fragment isolated in yeast screen, tested as GST fusion (protein)
chain: MLIKYQSSRIDDQRCPPPDVLPRGPTMPDEDFFSLIQRVQAKRMDEQRVDLAGSPDQEASGLPDPRQQCPPGAS
modifications: left off: a dimerising Fc or GST

How the values were obtained:
[1] = test system: pheromone response pathway; experiment: β-galactosidase reporter assays in yeast strains expressing different Gα subunits; assay type: cell-based, Saccharomyces cerevisiae; details: Gpa1, Gsα, Giα2, Giα3, Gα16 backgrounds
Source text: (§1) (A) Bioactivity of cDNA #37 and 53 in yeast strains expressing different Gα subunits. The Gpa1, Giα2Gpa1(1-41), Giα3Gpa1(1-41) and Gα16Gpa1(1-41) yeast strains expressed similar amounts of G-protein as determined by immunoblotting with Gpa1-specific antisera. Each series of experiments include data obtained in the absence of Gα to indicate the signal obtained when the action of Gβγ is not limited by reformation of heterotrimer. Data are presented as the mean±S.E.M of three experiments with duplicate determinations. (B) Interaction of AGS2 and AGS3 with G-proteins. AGS2 and the bioactive AGS3 peptide (74 amino acids) beginning at the first in frame methionine were generated as GST-fusion proteins in bacteria and purified using a glutathione affinity matrix. AGS2 and AGS3 GST fusion proteins were incubated with G-protein subunits (Gα=60-80 nM, Gβγ=40 nM, fusion protein=˜300 nM, total volume=250 ul) for 12 hrs at 4° C. GDP=10 uM. […] Giα2 was generated in Sf9 cells as an amino terminal his6-tagged protein and was detected on membrane transfers using anti-Xpress antisera (Invitrogen). Bovine brain Gβγ was detected on membrane transfers with Gβ antisera. […]
Generation and screening of cDNA libraries. […] The cDNAs conferring such a response were considered positive and were further evaluated by epistasis experiments in different yeast strains, nucleotide sequencing and RNA blot analysis. […]

brain Gβγ = experiment: GST fusion protein interaction with purified brain Gβγ; assay type: binding, bovine; details: GST fusion protein ~300 nM, Gβγ 40 nM
Source text: as §1, with “uM. GTPγS=10 uM plus 5 mM MgCl2.” for “uM.”
Immunoblotting and G-protein interaction assays. […] Bound proteins were detected by immunoblotting membrane transfers with specific antisera. […]

Molecule | activity in yeast strains expressing different Gα subunits [1] | interaction with brain Gβγ (brain Gβγ)
AGS2: Activator of G-protein Signalling 2, protein identical to mouse Tctex1, isolated from NG108-15 cDNA library | active in each of the genetic backgrounds except Gpa1 | directly bound
B1 | only active in the Giα2 and Giα3 genetic backgrounds | did not interact
